The subject of series [1] is coxsackie B virus strain 1. Description: Antiviral CPE inhibition assay in mammalian cell culture, Cox B1. Type of series: cell-based. The note with it: for inhibition at 0.01 µM: read-out: Inh. at 10 nM, Cox B1; for inhibition at 0.1 µM: read-out: Inh. at 100 nM, Cox B1.
Series [2] relates to enterovirus D68. Briefly: Antiviral CPE inhibition assay in mammalian cell culture, EV-D68. Format: cell-based. The note with it: Enterovirus D, EVD68, inhibition of viral CPE; for inhibition at 0.01 µM: 10 nM, read-out: Inh. at 10 nM, EV-D68; for inhibition at 0.1 µM: 100 nM, read-out: Inh. at 100 nM, EV-D68.
The nature of series [3]: Metabolic stability in rat liver microsomes. Type of series: in vitro ADME. The note with it: 5 μM test item, 0.25 mg/mL microsomal protein. The method, then: (§1) Metabolic stability assay was carried out using Human/Rat liver microsomes. […] Test item/Control items were incubated with Human/Rat liver microsomes with cofactors and without cofactors. The reaction mixture (100 μL) was removed at specified time period and the reaction was stopped by addition of stop solution. The samples were extracted in presence of internal standard and were analyzed using LC-MS/MS. The percent of the test/Control item remaining after specified incubation period was calculated with respect to the peak area ratio at time 0 min. […] The reaction mixture was incubated further at 37° C. for specified incubation time points (With Cofactors: 0, 15, 30, 60 and 120 min; Without Cofactors: 0 and 120 min). 100 μL incubation samples of test items and Control items at specified incubation time points were transferred to respective tubes for sample extraction. Test and Control item specimens were extracted by Protein precipitation method. A 100 μL incubation sample at each time point was added to tubes containing 200 μL of ice-cold acetonitrile and 50 μL Haloperidol solution (0.5 μg/mL). Then the tubes were vortex mixed thoroughly and centrifuged at 10000 rpm for 10 minutes at 4° C. A clear supernatant of 200 μL of samples were submitted for LC-MS/MS analysis.
A general note: Microsomes from liver hold many membrane-bound enzymes, among them those of drug oxidation.

The test system of series [4] is polio virus strain 1. Briefly: organism not typed. Type of series: cell-based. Conditions: for inhibition at 0.01 µM: read-out: Inh. at 10 nM, Polio 1; for inhibition at 0.1 µM: read-out: Inh. at 100 nM, Polio 1.
Series [5] relates to enterovirus strain 71. Briefly: Antiviral CPE inhibition assay in mammalian cell culture, EV71. Format: cell-based. The note with it: inhibition of viral CPE; for inhibition at 0.01 µM: 10 nM, read-out: Inh. at 10 nM, EV71; for inhibition at 0.1 µM: 100 nM, read-out: Inh. at 100 nM, EV71.
Series [6] has as its system coxsackie B virus strain 3. Briefly: Antiviral CPE inhibition assay in mammalian cell culture, Cox B3. Type of series: cell-based. The note with it: for inhibition at 0.01 µM: read-out: Inh. at 10 nM, Cox B3; for inhibition at 0.1 µM: read-out: Inh. at 100 nM, Cox B3.
Series [7] has as its system enterovirus strain 6. Briefly: microbe, parasite or virus in culture. The note with it: inhibition of viral CPE; for inhibition at 0.01 µM: 10 nM, read-out: Inh. at 10 nM, EV6; for inhibition at 0.1 µM: 100 nM, read-out: Inh. at 100 nM, EV6. Format: cell-based.
Series [8] has as its system coxsackie B virus strain 5. Briefly: Antiviral CPE inhibition assay in mammalian cell culture, Cox B5. Type of series: cell-based. Conditions: for inhibition at 0.01 µM: read-out: Inh. at 10 nM, Cox B5; for inhibition at 0.1 µM: read-out: Inh. at 100 nM, Cox B5.
Series [9] in a line: in vivo. Details: species or system Sprague Dawley rats. The note with it: male, Sprague Dawley, rat, po, 10 mg/kg. Here is the method:
10 mg of the compound was weighed and transferred to graduated tube. Then 500 μL of DMA (5% v/v) was added, vortex mixed thoroughly and sonicated till test item was completely dissolved. Then 5 mL of PEG 200 (50% v/v) were added, and vortex mixed thoroughly. Thereafter, Sterile Water for Injection (SWFI) was added in small increments and vortex mixed thoroughly. Finally, the volume was made up to 10 mL with SWFI (45% v/v) to obtain a clear solution with final formulation strength of 1 mg/mL. […] Formulation was freshly prepared before the administration to animals. Adult healthy male Sprague Dawley rats aged 8-10 weeks were used for experimentation after a minimum 3 days of acclimation. Fasted animals were administered with test compound in recommended vehicle (5% DMA+50% PEG 200+45% SWFI) by oral route at a dose of 10 mg/kg body weight and at dose volume of 10 mL/kg body weight. Under mild isoflurane anesthesia, blood specimens were collected into pre-labeled tubes containing anticoagulant (K2EDTA—2 mg/mL blood) at different time points post dose.

Series [10] deals with T1, CYP3A4 (Homo sapiens, UniProt P08684).
T1 construct: from tissue; host or cells: human liver microsomes
Briefly: In vitro CYP 3A4 enzyme inhibition in human liver microsomes by probe substrate method. Type of series: in vitro ADME. The note with it: human liver microsomes 0.5 mg/mL; probe substrate Midazolam 5 μM. The method, then: In Vitro CYP 3A4 Enzyme Inhibition Study in Human Liver Microsomes by Probe Substrate Method
In vitro CYP3A4 enzyme inhibition assay was performed using Human liver microsomes at 0.5 mg/mL concentration. Ketoconazole was used as reference inhibitor and Midazolam was used as selective probe substrate for CYP 3A4 enzyme. Serial dilution of test/control items was prepared in potassium phosphate buffer (50 mM, pH 7.40) to obtain eight concentrations each in a 1:4 dilution pattern. The percentage of acetonitrile/DMSO was maintained at 2.5%/0.25% in 2.5× serially diluted control/test item solutions respectively. The final percentage of acetonitrile/DMSO was 1%/0.1% respectively. Intermediate solutions such as 10× working solution (5 mg/mL) of Human liver microsomal solution, 10× concentration of reference probe substrates in buffer, 5× concentrations of Cofactors (5.0 mM NADP+, 25.0 mM G-6-P, 3.0 IU/mL G-6-PDH and 10.0 mM MgCl2) were prepared in potassium phosphate buffer. The final concentration of liver microsomes in the reaction mixture was 0.5 mg/mL, cofactors was 1.0 mM NADP+, 5.0 mM G-6-P, 0.6 IU/mL G-6-PDH and 2.0 mM MgCl2. Midazolam was tested at 5 μM test concentration. 40 μL of 2.5× serially diluted test/control item solutions and 10 μL of […] liver microsomal solution were added to 96 well plate and incubated for 10 min at 37° C. with shaking condition (400 rpm) using Thermomixer. After pre incubation, 20 μL of potassium phosphate buffer, 10 μL of respective probe substrate working solution and 20 μL of cofactor mix was added.

The nature of series [11]: Rat plasma protein binding (Rapid Equilibrium Dialysis). Conditions: pH 7.4, RED device, 37° C. Format: in vitro ADME. The method, then:
(§2) Plasma protein binding study was performed using a Rapid Equilibrium Dialysis (RED) device containing dialysis membrane with a molecular weight cut-off of 8,000 Daltons. Each dialysis insert contained two chambers. The red chamber was for the plasma while the white chamber was for the buffer. Test items and Control items (Warfarin and Propranolol) were prepared at a required test concentration of 10 μM in Human/Rat plasma (pH adjusted to 7.40) using 10 mM DMSO stocks (final DMSO concentration was 0.1%). 300 μL of plasma sample was added into the sample chamber. 500 μL of buffer was added into the buffer chamber. After sealing the RED device with an adhesive film, incubation was done at 37° C. with shaking at 300 rpm for 4 h. Following incubation, an aliquot of 50 μL was removed from each well (plasma and buffer side) and diluted with equal volume of opposite matrix to nullify the matrix effect and subjected for sample extraction.
(§3) All samples were extracted by Protein Precipitation method by adding 200 μL of ice cold Acetonitrile and 50 μL of internal standard (Haloperidol at 0.1 μg/mL) solution. The tubes were vortex mixed thoroughly and centrifuged at 10000 rpm, 4° C. for 10 minutes. A clear supernatant of 200 μL of samples were submitted for LC-MS/MS analysis.
A general note: Equilibrium dialysis compares concentrations on both sides of a semipermeable membrane.

Series [12] can be described thus: Human plasma protein binding (Rapid Equilibrium Dialysis). Type of series: in vitro ADME. The note with it: pH 7.4, RED device, 37° C. The method, then:
as §2, §3

Series [13] has as its system coxsackie B virus strain 2. Briefly: Antiviral CPE inhibition assay in mammalian cell culture, Cox B2. Conditions: for inhibition at 0.01 µM: read-out: Inh. at 10 nM, Cox B2; for inhibition at 0.1 µM: read-out: Inh. at 100 nM, Cox B2. Format: cell-based.
Series [14] concerns enterovirus strain 30. Description: Antiviral CPE inhibition assay in mammalian cell culture, EV30. Type of series: cell-based. The note with it: inhibition of viral CPE; for inhibition at 0.01 µM: 10 nM, read-out: Inh. at 10 nM, EV30; for inhibition at 0.1 µM: 100 nM, read-out: Inh. at 100 nM, EV30.
Series [15] in a line: Metabolic stability in human liver microsomes. Type of series: in vitro ADME. The note with it: 5 μM test item, 0.25 mg/mL microsomal protein. The method, then:
as §1

The conditions of series [16]: mice; cited from earlier work.

Results on three molecules are retold here after US12319696B2, “2,6-dimethyl-n-((pyridin-4-yl)methyl)imidazo[1,2-b]pyridazin-8-amine and 2,5-dimethyl-n-[(pyridin-4-yl)methyl]pyrazolo[1,5-a]pyrimidin-7-amine derivatives for treating viral infections” (CUROVIR AB, priority 2018, dated 2025).

Bounds are passed on as bounds.

T1 sequence (P08684 whole entry): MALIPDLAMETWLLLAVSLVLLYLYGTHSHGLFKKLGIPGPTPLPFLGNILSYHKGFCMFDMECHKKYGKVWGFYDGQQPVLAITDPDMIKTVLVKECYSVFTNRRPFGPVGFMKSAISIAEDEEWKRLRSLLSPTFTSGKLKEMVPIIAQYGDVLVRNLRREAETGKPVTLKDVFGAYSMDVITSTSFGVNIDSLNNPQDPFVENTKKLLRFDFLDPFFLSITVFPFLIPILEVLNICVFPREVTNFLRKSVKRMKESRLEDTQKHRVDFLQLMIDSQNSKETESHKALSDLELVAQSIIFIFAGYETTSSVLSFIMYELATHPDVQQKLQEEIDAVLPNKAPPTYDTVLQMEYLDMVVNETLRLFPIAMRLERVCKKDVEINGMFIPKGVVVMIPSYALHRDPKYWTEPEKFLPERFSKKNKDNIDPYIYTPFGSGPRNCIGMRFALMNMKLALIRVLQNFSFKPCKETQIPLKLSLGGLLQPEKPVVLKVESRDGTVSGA

In the case of `Cc1cc(NCc2ccncc2)n2nc(C)c(-c3ccc4c(c3)c(C)nn4C)c2n1` [Comp. Y, 3-(1,3-dimethyl-1H-indazol-5-yl)-2,5-dimethyl-N-[(pyridin-4-yl)methyl]pyrazolo[1,5-a]pyrimidin-7-amine, reference compound], the inhibition at 0.01 µM was 100% in series [1]; 85% in [2]; 100% in series [4]; 87% in [5]; 100% in [6]; 100% in series [7]. In addition, the inhibition at 0.01 µM in [8] turned out to be 85%; in series [13], 100%; in [14], 100%. Besides, the inhibition at 0.1 µM in series [1] amounted to 100%; in series [2], 80%; in [4], 100%; in series [5], 86%; in series [6] it was 100%; in series [7] it was 100%. Also, the inhibition at 0.1 µM in series [8], in series [13] and in series [14] was 100% each time. In [3], the “% remaining after incubation for 60 min, Rat microsomes” value was found to be 89.7%. Further, in [9], the AUC(0-inf) (in general, the area under the concentration-time curve extrapolated to infinity) worked out at 15500 ± 1900 ng·h/mL. Besides, the exposure AUC(0-t) (in general, the area under the concentration-time curve up to a stated or last time point) in series [9] turned out to be 14800 ± 2600 ng·h/mL. Besides, in series [9], the AUCextrap is listed as 4.6 ± 5.6%. In series [9], the concentration peaked (Cmax) at 2300 ± 300 ng/mL. The MRT last – broadly, the average time that molecules of a dose stay in the body – in series [9] amounted to 4.4 ± 1.1 h. Also, the Tmax – broadly, the time from dosing to the highest level – in [9] is 1.2 ± 0.8 h. In addition, the half-life (commonly how long it takes for the measured level to halve) in series [9] is 204 ± 72 min. Also, in series [10], the IC50 (usually the midpoint of a concentration-inhibition curve) came to 280 nM. Besides, the fraction unbound – broadly, the share of the substance not bound to proteins or other matrix – at 4 h, 10 μM was 0.024 in series [11] and 0.027 in series [12]. The “% remaining after incubation for 60 min, Human microsomes” value in series [15] was 86.2%.
In the case of `Cc1cc(CNc2cc(C)nc3c(-c4ccc5c(c4)c(C)nn5C)c(C)nn23)ccn1` [Ex. 4, 3-(1,3-dimethyl-1H-indazol-5-yl)-2,5-dimethyl-N-[(2-methylpyridin-4-yl)methyl]pyrazolo[1,5-a]pyrimidin-7-amine], the inhibition at 0.01 µM in [1] came to 100%; in series [2] it was 81%; in series [4], 100%; in series [5], 76%; in series [6] it was 100%; in series [7] it was 100%. The inhibition at 0.01 µM in [8] was found to be 74%; in series [13], 100%; in series [14] it was 100%. The inhibition at 0.1 µM turned out to be 100% in series [1]; 70% in series [2]; 100% in series [4]; 79% in series [5]; 100% in [6]; 100% in series [7]. Further, the inhibition at 0.1 µM in [8], in series [13] and in series [14] was 100% in each case. Moreover, the “% remaining after incubation for 60 min, Rat microsomes” value in series [3] was 84.0%. Further, the AUC(0-inf) in series [9] turned out to be 27400 ± 10100 ng·h/mL. Also, in series [9], the AUC(0-t) worked out at 25200 ± 10000 ng·h/mL. The molecule also returned an AUCextrap in series [9] of 8.5 ± 5.2%. For the same molecule, the highest level in series [9] (Cmax) was 2500 ± 900 ng/mL. Besides, in series [9], the MRT last worked out at 6.7 ± 0.6 h. Moreover, the Tmax in [9] came out at 1.3 ± 0.6 h. For the same molecule, the half-life in [9] was 408 ± 90 min. Also, the IC50 in series [10] is > 25000 nM. Besides, the fraction unbound at 4 h, 10 μM in series [11] was 0.017; in series [12], 0.015. In addition, in [15], the “% remaining after incubation for 60 min, Human microsomes” value was found to be 90.0%.
As to `COc1ccc(-c2c(C)nn3c(NCCN4CCOCC4)cc(C)nc23)cc1OC` [T-00127-HEV1, 3-(3,4-dimethoxyphenyl)-2,5-dimethyl-N-(2-morpholinoethyl)pyrazolo[1,5-a]pyrimidin-7-amine], the “mortality when tested in-vivo” value in series [16] is on record as “induced mortality in mice”.
